According to ChEMBL document CHEMBL1129327, “Diphenylpropionic acids as new AT1 selective angiotensin II antagonists” (J Med Chem, 1996):

What follows are compounds tested against Angiotensin II receptor (Rattus norvegicus) (UniProt P29089+P25095+P35351) (assay: In vivo inhibitory percentage of pressor response induced by exogenous submaximal dose of angiotensin-II (3 ug/kg) administered iv to pithed rats).
Chain of Angiotensin II receptor (Rattus norvegicus) (P35351 whole entry, looked up, one chain of several): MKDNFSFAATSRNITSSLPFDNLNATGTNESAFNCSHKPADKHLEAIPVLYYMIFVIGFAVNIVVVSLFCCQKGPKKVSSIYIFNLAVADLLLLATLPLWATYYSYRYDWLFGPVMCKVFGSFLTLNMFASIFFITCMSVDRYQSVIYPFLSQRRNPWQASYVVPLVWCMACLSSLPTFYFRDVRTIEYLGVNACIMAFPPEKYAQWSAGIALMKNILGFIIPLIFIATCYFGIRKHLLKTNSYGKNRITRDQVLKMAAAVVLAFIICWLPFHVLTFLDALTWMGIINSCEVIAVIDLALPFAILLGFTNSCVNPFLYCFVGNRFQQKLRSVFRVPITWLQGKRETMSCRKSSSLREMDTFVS
Assay type: functional, organism-based
In the case of CCc1nc2c(C)cc(C)nc2n1Cc1ccc(C(CC(=O)O)c2ccccc2)cc1 (stereo not drawn), the inhibition is reported as 68.5%.
With CCc1nc2c(C)cc(C)nc2n1Cc1ccc(C(Cc2ccccc2)C(C(=O)O)C(=O)O)cc1 (stereo not drawn) the inhibition was < 10%.
Work on CCc1nc2c(C)cc(C)nc2n1Cc1ccc(C(CC(=O)O)c2ccccc2F)cc1 (stereo not drawn) yielded an inhibition of 68.7%.
Compound CCc1nc2c(C)cc(C)nc2n1Cc1ccc(/C(=C(/Br)c2nn[nH]n2)c2ccccc2)cc1 (stereo in doubt; 22c) [listing 1 of 2 here] has an inhibition of 39.9%.
Compound CCc1nc2c(C)cc(C)nc2n1Cc1ccc(C(CC(=O)O)c2ccc(F)cc2F)cc1 (stereo not drawn) has an inhibition of 40.4%.
CCc1nc2c(C)cc(C)nc2n1Cc1ccc(C(c2ccccc2C)C(C(=O)O)C(=O)O)cc1 (stereo not drawn) was tested, and the inhibition was 62%.
In the case of CCc1nc2c(C)cc(C)nc2n1Cc1ccc(/C(=C\C(=O)O)c2ccccc2)cc1 (stereo in doubt; 12A) [listing 1 of 2 here], the inhibition is reported as 30.4%.
Compound CCc1nc2c(C)cc(C)nc2n1Cc1ccc(C(c2ccc(C)cc2)C(C(=O)O)C(=O)O)cc1 (stereo not drawn) has an inhibition of 17.1%.
CCc1nc2c(C)cc(C)nc2n1Cc1ccc(C(c2ccccc2)C(C)C(=O)O)cc1 (stereo not drawn) showed an inhibition of 73.7%.
CCc1nc2c(C)cc(C)nc2n1Cc1ccc(C(Cc2nnn[nH]2)c2ccccc2)cc1 (stereo not drawn) showed an inhibition of 55.4%.
CCc1nc2c(C)cc(C)nc2n1Cc1ccc(C(c2ccccc2)C(C)(C)C(=O)O)cc1 (stereo not drawn) was tested, and the inhibition was 50.7%.
Compound CCc1nc2c(C)cc(C)nc2n1Cc1ccc(C(c2ccccc2)C(C(=O)O)C(F)(F)F)cc1 (stereo not drawn) has an inhibition of 32.3%.
With CCc1nc2c(C)cc(C)nc2n1Cc1ccc(C(C(C)C)C(C)C(=O)O)cc1 (stereo not drawn) the inhibition was 30.4%.
Work on CCc1nc2c(C)cc(C)nc2n1Cc1ccc(C(c2ccccc2)C(Br)C(=O)O)cc1 (stereo not drawn) yielded an inhibition of 47.1%.
For CCc1nc2c(C)cc(C)nc2n1Cc1ccc(/C(=C\c2nn[nH]n2)c2ccccc2)cc1 (stereo in doubt; 22b) [listing 1 of 2 here], the inhibition was < 10%.
CCc1nc2c(C)cc(C)nc2n1Cc1ccc(C(CC(=O)NS(=O)(=O)c2ccccc2)c2ccccc2)cc1 (stereo not drawn) was tested, and the inhibition was 48.2%.
CCc1nc2c(C)cc(C)nc2n1Cc1ccc(C(C)C(C)C(=O)O)cc1 (stereo not drawn) showed an inhibition of 46%.

What follows are compounds tested against T1, Angiotensin II receptor (AT-1) type-1 (Rattus norvegicus, UniProt P29089+P25095) (assay: Inhibitory concentration was evaluated by measuring displacement of [3H]AII from rat liver Angiotensin II receptor, type 1).
T1 sequence (P29089 whole entry): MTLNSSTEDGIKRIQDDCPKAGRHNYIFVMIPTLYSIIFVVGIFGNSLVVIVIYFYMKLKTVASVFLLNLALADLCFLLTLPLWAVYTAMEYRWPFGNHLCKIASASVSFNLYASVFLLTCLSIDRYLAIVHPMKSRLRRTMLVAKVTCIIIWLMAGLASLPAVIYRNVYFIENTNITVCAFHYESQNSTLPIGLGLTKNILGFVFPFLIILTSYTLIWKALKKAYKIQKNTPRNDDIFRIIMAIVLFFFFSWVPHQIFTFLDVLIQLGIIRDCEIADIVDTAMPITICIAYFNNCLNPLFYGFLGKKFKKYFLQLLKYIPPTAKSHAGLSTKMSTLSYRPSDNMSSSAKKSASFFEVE
T1 sequence (P25095 whole entry): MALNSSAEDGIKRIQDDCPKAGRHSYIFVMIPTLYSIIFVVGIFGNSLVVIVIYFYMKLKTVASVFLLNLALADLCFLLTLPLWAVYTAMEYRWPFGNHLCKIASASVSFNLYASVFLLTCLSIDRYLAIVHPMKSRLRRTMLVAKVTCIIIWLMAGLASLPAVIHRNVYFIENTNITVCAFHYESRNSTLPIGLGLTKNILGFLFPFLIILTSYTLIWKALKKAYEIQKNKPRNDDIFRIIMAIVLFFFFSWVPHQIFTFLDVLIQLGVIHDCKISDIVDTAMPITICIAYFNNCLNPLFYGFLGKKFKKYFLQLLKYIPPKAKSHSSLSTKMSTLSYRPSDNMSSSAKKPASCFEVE
For CCc1nc2c(C)cc(C)nc2n1Cc1ccc(/C(=C(/Br)c2nn[nH]n2)c2ccccc2)cc1 (stereo in doubt; 22c) [listing 2 of 2 here], the IC50 was 44 nM.
CCc1nc2c(C)cc(C)nc2n1Cc1ccc(/C(=C(/Br)c2nn[nH]n2)c2ccccc2)cc1 (stereo in doubt; 22d) gave an IC50 of 290 nM.
Compound CCc1nc2c(C)cc(C)nc2n1Cc1ccc(/C(=C\C(=O)O)c2ccccc2)cc1 (stereo in doubt; 12B) has an IC50 of 170 nM.
For CCc1nc2c(C)cc(C)nc2n1Cc1ccc(/C(=C\c2nn[nH]n2)c2ccccc2)cc1 (stereo in doubt; 22b) [listing 2 of 2 here], the IC50 was 130 nM.
With CCc1nc2c(C)cc(C)nc2n1Cc1ccc(C(CCNS(=O)(=O)C(F)(F)F)c2ccccc2)cc1 (stereo not drawn) the IC50 was > 10000 nM.
CCc1nc2c(C)cc(C)nc2n1Cc1ccc(C(CC(=O)O)c2ccccc2)cc1 (stereo not drawn) showed an IC50 of 110 nM.
Compound CCc1nc2c(C)cc(C)nc2n1Cc1ccc(/C(=C\c2nn[nH]n2)c2ccccc2)cc1 (stereo in doubt; 22a) has an IC50 of 92 nM.
In the case of CCc1nc2c(C)cc(C)nc2n1Cc1ccc(/C(=C\C(=O)O)c2ccccc2)cc1 (stereo in doubt; 12A) [listing 2 of 2 here], the IC50 is reported as 120 nM.
For CCc1nc2c(C)cc(C)nc2n1Cc1ccc(C(Cc2ccccc2)C(C(=O)O)C(=O)O)cc1 (stereo not drawn), the IC50 was > 10000 nM.
CCc1nc2c(C)cc(C)nc2n1Cc1ccc(C(CC(=O)O)c2ccccc2F)cc1 (stereo not drawn) gave an IC50 of 130 nM.
For CCc1nc2c(C)cc(C)nc2n1Cc1ccc(C(CC(=O)O)c2ccc(F)cc2F)cc1 (stereo not drawn), the IC50 was 250 nM.
With CCc1nc2c(C)cc(C)nc2n1Cc1ccc(C(CC(=O)O)c2ccc(-c3ccncc3)cc2)cc1 (stereo not drawn) the IC50 was 5300 nM.
In the case of CCc1nc2c(C)cc(C)nc2n1Cc1ccc(C(c2ccccc2C)C(C(=O)O)C(=O)O)cc1 (stereo not drawn), the IC50 is reported as 210 nM.
With CCc1nc2c(C)cc(C)nc2n1Cc1ccc(C(c2ccc(C)cc2)C(C(=O)O)C(=O)O)cc1 (stereo not drawn) the IC50 was 1100 nM.
CCc1nc2c(C)cc(C)nc2n1Cc1ccc(C(c2ccccc2)C(C)C(=O)O)cc1 (stereo not drawn) was tested, and the IC50 was 71 nM.
In the case of CCc1nc2c(C)cc(C)nc2n1Cc1ccc(C(Cc2nnn[nH]2)c2ccccc2)cc1 (stereo not drawn), the IC50 is reported as 120 nM.
Compound CCc1nc2c(C)cc(C)nc2n1Cc1ccc(C(c2ccccc2)C(C)(C)C(=O)O)cc1 (stereo not drawn) has an IC50 of 240 nM.
CCc1nc2c(C)cc(C)nc2n1Cc1ccc(C(C(C)C)C(C)C(=O)O)cc1 (stereo not drawn) was tested, and the IC50 was 600 nM.
CCc1nc2c(C)cc(C)nc2n1Cc1ccc(C(c2ccccc2)C(Br)C(=O)O)cc1 (stereo not drawn) showed an IC50 of 170 nM.
CCc1nc2c(C)cc(C)nc2n1Cc1ccc(C(CC(=O)O)c2ccc(OC)cc2)cc1 (stereo not drawn) was tested, and the IC50 was 3700 nM.
For CCc1nc2c(C)cc(C)nc2n1Cc1ccc(C(CC(=O)NS(=O)(=O)c2ccccc2)c2ccccc2)cc1 (stereo not drawn), the IC50 was 360 nM.
